Test results: paper PMC3752001 (European journal of pharmacology, 2012)
Values joined by “and” are separate entries in the source; they are usually repeats but may differ in a detail not shown here. Equal entries are not always repeated. Structures can show the parent of a compound that is named as a salt. Where two headings read alike, the source gives them in different places.

Assays:
[1] = biological target: high sensitivity (HS) α4β2 nicotinic acetylcholine receptors (Homo sapiens, UniProt P17787+P43681); assay: Two-electrode voltage clamp, high sensitivity; type: cell-based
high sensitivity (HS) α4β2 nicotinic acetylcholine receptors, sequence (P43681 27-627): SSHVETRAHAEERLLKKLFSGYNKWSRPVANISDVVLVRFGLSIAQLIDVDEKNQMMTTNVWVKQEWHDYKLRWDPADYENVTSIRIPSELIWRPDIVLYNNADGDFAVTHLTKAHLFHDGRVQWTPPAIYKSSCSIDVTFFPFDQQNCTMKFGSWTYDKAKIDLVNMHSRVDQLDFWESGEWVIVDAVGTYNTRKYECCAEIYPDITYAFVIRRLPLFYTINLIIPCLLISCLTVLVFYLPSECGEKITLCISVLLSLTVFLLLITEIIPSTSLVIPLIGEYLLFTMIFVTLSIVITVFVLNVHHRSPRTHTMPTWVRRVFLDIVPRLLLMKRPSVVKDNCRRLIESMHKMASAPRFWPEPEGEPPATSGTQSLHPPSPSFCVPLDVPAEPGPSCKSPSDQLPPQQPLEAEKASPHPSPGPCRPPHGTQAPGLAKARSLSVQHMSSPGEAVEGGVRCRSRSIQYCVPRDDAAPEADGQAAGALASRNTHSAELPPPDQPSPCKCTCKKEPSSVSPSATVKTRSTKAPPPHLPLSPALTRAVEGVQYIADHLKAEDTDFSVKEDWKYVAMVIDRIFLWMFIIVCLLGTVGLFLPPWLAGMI
high sensitivity (HS) α4β2 nicotinic acetylcholine receptors, sequence (P17787 26-502): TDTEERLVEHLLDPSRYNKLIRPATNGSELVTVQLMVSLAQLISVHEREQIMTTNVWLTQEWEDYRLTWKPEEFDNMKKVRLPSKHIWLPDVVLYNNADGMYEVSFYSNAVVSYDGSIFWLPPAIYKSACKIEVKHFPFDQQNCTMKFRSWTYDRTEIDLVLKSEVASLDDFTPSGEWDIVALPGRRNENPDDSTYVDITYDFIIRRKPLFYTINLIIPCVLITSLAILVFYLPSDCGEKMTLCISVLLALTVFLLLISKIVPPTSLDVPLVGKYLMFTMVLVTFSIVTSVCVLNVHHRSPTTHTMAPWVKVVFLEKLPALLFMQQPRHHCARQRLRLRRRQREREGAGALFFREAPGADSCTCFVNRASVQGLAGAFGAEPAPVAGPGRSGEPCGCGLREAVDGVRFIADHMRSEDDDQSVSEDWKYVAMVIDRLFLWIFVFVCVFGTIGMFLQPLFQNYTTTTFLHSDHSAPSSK

[2] = biological target: low sensitivity (LS) α4β2 nicotinic acetylcholine receptors (Homo sapiens, UniProt P17787+P43681); assay: Two-electrode voltage clamp, low sensitivity; type: cell-based; details: for Imax (%) potentiation: dFBr co-applied with 100 μM acetylcholine (EC75)
low sensitivity (LS) α4β2 nicotinic acetylcholine receptors, sequence (P43681 27-627): as the sequence (P43681 27-627) above
low sensitivity (LS) α4β2 nicotinic acetylcholine receptors, sequence (P17787 26-502): as the sequence (P17787 26-502) above

[3] = biological target: HS β2D218A α4β2 receptors (Homo sapiens, UniProt P17787+P43681, D218A); assay: Two-electrode voltage clamp, HS β2D218A mutant preparation in Xenopus oocytes; type: cell-based; details: for nH ± S.E.M.: ACh concentration/response, HSβ2D218A
HS β2D218A α4β2 receptors, sequence (P43681 27-627): as the sequence (P43681 27-627) above
HS β2D218A α4β2 receptors, sequence (P17787 26-502 D218A): as the sequence (P17787 26-502) above, with D193A counted along it

[4] = biological target: LS β2D218A α4β2 receptors (Homo sapiens, UniProt P17787+P43681, D218A); assay: Two-electrode voltage clamp, LS β2D218A mutant preparation in Xenopus oocytes; type: cell-based; details: for nH ± S.E.M.: ACh concentration/response, LSβ2D218A
LS β2D218A α4β2 receptors, sequence (P43681 27-627): as the sequence (P43681 27-627) above
LS β2D218A α4β2 receptors, sequence (P17787 26-502 D218A): as the sequence (P17787 26-502) above, with D193A counted along it

[5] = biological target: α7 nicotinic acetylcholine receptors (Homo sapiens, UniProt P36544); assay: Two-electrode voltage clamp, α7 receptors in Xenopus oocytes; type: cell-based
α7 nicotinic acetylcholine receptors, sequence (P36544 23-502): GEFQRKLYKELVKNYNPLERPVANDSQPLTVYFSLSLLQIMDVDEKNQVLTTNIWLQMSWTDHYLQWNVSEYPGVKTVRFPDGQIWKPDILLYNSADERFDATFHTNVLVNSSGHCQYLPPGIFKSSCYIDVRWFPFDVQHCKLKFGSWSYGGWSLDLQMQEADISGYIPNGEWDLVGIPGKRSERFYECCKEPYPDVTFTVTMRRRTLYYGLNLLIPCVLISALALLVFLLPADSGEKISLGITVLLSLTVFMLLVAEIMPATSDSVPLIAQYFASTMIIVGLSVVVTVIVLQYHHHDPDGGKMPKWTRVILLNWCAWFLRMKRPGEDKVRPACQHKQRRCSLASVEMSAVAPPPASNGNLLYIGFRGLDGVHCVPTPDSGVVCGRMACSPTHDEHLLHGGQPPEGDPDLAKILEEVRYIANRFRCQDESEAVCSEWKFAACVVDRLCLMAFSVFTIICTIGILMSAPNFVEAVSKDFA

[6] = tested on: human and rat 5-hydroxytryptamine transporters (SERT); details: HEPES concentrations greater than 1 mM; ref Li et al., 2002; cited from earlier work

Compound: O=S(=O)(O)CCN1CCN(CCO)CC1 [HEPES, 4-(2-hydroxyethyl)-1-piperazineethanesulfonic acid]
- IC50 [1]: 430 µM
- potentiation of the acetylcholine-induced Imax currents ([1]; 100 μM HEPES, HS, phosphate ND-96): 194%
- current induced by HEPES alone ([1]; HEPES applied alone to α4β2 expressing oocytes (data not shown)): no induced current
- maximum potentiation of acetylcholine induced responses ([1]; HEPES co-applied with 10 μM acetylcholine, HS, 2 mM phosphate ND-96, pH 7.4): 190%
- effect of HEPES on acetylcholine response ([2]; HEPES co-applied with 100 μM acetylcholine, LS, phosphate ND-96): only a slight inhibition of the response with no observable potentiation
- potentiation by HEPES ([3]; HEPES co-applied with 10 μM acetylcholine, HS β2D218A, phosphate ND-96): not potentiated
- potentiation by HEPES ([4]; HEPES co-applied with 100 μM acetylcholine, LS β2D218A, phosphate ND-96): remained insensitive
- effect of HEPES on responses to acetylcholine ([5]; HEPES ≤ 10 mM co-applied with 1 mM acetylcholine, α7): little observable effect
- decrease of SERT currents [6]: 10–50%

Compound: CC(=O)OCC[N+](C)(C)C [ACh, acetylcholine chloride]
- change of acetylcholine pEC50 [1]: not significantly changed
- nH ± S.E.M. [1]: 0.9 ± 0.2 and 1.0 ± 0.2
- nH ± S.E.M. [2]: 1.2 ± 0.1 and 1.2 ± 0.2
- nH ± S.E.M. ([3]; HEPES ND-96 buffer): 1.1 ± 0.3
- nH ± S.E.M. ([3]; phosphate ND-96 buffer): 0.9 ± 0.3
- nH ± S.E.M. ([4]; HEPES ND-96 buffer): 1.0 ± 0.1
- nH ± S.E.M. ([4]; phosphate ND-96 buffer): 0.8 ± 0.2
- Hill slope ([5]; acetylcholine, α7, phosphate ND-96 buffer): 0.79 ± 0.13

Compound: Tris (hydroxymethyl)-aminomethane hydrochloride
- inhibition of acetylcholine response ([1]; 10 mM Tris co-applied with 10 μM acetylcholine, HS, phosphate ND-96): 50%
- inhibition of the dFBr potentiated acetylcholine induced response ([1]; 10 mM Tris, with 1 μM dFBr and acetylcholine, HS, phosphate ND-96): about 50%
- current induced by Tris alone ([1]; Tris in phosphate buffer in the absence of acetylcholine): did not induce currents
- effect of Tris on acetylcholine response ([2]; Tris ≤ 10 mM co-applied with 100 μM acetylcholine, LS, phosphate ND-96): only slightly inhibited
- effect of Tris on the dFBr potentiated response ([2]; Tris ≤ 10 mM, with 1 μM dFBr and acetylcholine, LS, phosphate ND-96): only slightly inhibited

Compound: C=CC(C)(C)c1[nH]c2cc(Br)ccc2c1CCNC [dFBr, Desformylflustrabromine · HCl]
- EC50 [1]: 3.2 µM
- IC50 [1]: 79 µM
- Imax (%) potentiation [1]: 370% and 360%
- potentiation by dFBr [1]: ~360%
- EC50 ([1]; EC50 (potentiation)): 2.5 µM
- IC50 ([1]; IC50 (inhibition phase)): 50 µM
- EC50 [2]: 1.3 µM
- IC50 [2]: 6.3 µM
- Imax (%) potentiation ([2]; LS, HEPES ND-96 buffer): 260%
- Imax (%) potentiation ([2]; LS, phosphate ND-96 buffer): 370%
